The record followed here is ChEMBL document CHEMBL3714749, “Quinoxaline derivatives as gpr6 modulators” (2014).

G-protein coupled receptor 6, sequence (P46095 whole entry): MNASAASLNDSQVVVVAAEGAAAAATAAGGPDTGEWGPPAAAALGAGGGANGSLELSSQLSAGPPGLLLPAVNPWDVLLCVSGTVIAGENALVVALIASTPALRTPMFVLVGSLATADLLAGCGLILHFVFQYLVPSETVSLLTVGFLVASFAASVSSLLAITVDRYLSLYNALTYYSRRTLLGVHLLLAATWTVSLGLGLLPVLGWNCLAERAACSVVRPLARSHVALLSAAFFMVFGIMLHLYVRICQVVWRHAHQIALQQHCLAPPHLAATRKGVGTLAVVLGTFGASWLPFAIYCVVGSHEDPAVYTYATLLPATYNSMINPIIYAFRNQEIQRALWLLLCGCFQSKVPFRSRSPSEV

The test has as its target G-protein coupled receptor 6 (Homo sapiens, UniProt P46095). Briefly: Activity at GPR6 (unknown origin) expressed in CHOK1 cells assessed as inhibition of constitutive cAMP activity incubated for 45 mins by HTRF based cAMP detection assay. It counts as functional, cell-based, CHO-K1. For orientation: In TR-FRET formats the signal depends on donor and acceptor labels being close together.
For `Cc1ccc(S(=O)(=O)N2CCN(c3nc4cc(C#N)ccc4nc3NC3CC3)CC2)cc1`, the IC50 (as a rule, the concentration at which inhibition is half-maximal) was found to be 4740 nM.

Turning to `N#Cc1ccc(Cl)c(C(=O)C2CCN(c3nc4cnc(Cl)cc4nc3NC3CC3)CC2)c1`, the IC50 came out at 89 nM.

With `Cc1c(Cl)cc(F)cc1S(=O)(=O)N1CCN(c2nc3cc(C#N)ccc3nc2NC2CC2)CC1`, the IC50 stood at 960 nM.

Turning to `O=C(c1c(Cl)ccc(F)c1F)C1CCN(c2nc3cnccc3nc2NC2CC2)CC1`, the IC50 came out at 3900 nM.

Take `N#Cc1ccc2nc(NC3CCC3)c(N3CCN(C(=O)c4ccc(Cl)cc4)CC3)nc2c1`: the IC50 came out at 300 nM.

`O=C(c1cccs1)C1CCN(c2nc3cnccc3nc2NC2CC2)CC1`: the IC50 worked out at 6750 nM.

With `N#Cc1ccc2nc(NC3CC3)c(N3CCN(S(=O)(=O)c4ccc(OC(F)(F)F)cc4)CC3)nc2c1`, the IC50 is 4290 nM.

Take `N#Cc1ccc2nc(NC3CC3)c(N3CCN(S(=O)(=O)c4ccccc4Br)CC3)nc2c1`: the IC50 is 1850 nM.

In the case of `Fc1ccc(F)c(CN2CCN(c3nc4cnccc4nc3NC3CC3)CC2)c1`, the IC50 was found to be 120 nM.

Take `COc1ccc(OC2CCN(c3nc4ccncc4nc3NC(C)C)CC2)c(F)c1`: the IC50 was 12 nM.

As to `CC(C)Nc1nc2cc(C(=O)N(C)C)ncc2nc1N1CCN(Cc2ccc(F)cc2F)CC1`, the IC50 came to 40 nM.

Take `CC(C)Nc1nc2ccncc2nc1N1CCC(C(F)c2ccc(F)cc2F)CC1` (stereo not given): the IC50 is 29 nM.

On to `N#Cc1cccc(OC2CCN(c3nc4cnccc4nc3NC3CC3)CC2)c1`, for which the IC50 was 15400 nM.

With `CN(C)C(=O)c1cc2nc(NC3CC3)c(N3CCN(C(=O)c4cc(F)ccc4Cl)CC3)nc2cn1`, the IC50 turned out to be 1570 nM.

Take `CN(C)C(=O)c1cc2nc(NC3CC3)c(N3CCC([C@H](F)c4ccc(F)cc4F)CC3)nc2cn1`: the IC50 came out at 10 nM.

Take `N#Cc1ccc2nc(NC3CC3)c(N3CCN(S(=O)(=O)c4ccccc4C#N)CC3)nc2c1`: the IC50 came to 4340 nM.

On to `N#Cc1ccc2nc(NC3CC3)c(N3CCN(Cc4cc(F)ccc4F)CC3)nc2c1`, for which the IC50 turned out to be 380 nM.

Turning to `N#Cc1cccc2nc(NC3CC3)c(N3CCN(Cc4cc(Cl)ccc4Cl)CC3)nc12`, the IC50 came to 650 nM.

For `O=C(c1cccnc1Br)C1CCN(c2nc3cnccc3nc2NC2CC2)CC1`, the IC50 was determined as 2740 nM.

Take `N#Cc1nccc2nc(NC3CC3)c(N3CCN(Cc4ccc(F)cc4F)CC3)nc12`: the IC50 came to 66 nM.

For `Cc1cc(S(=O)(=O)N2CCN(c3nc4cc(C#N)ccc4nc3NC3CC3)CC2)c(C)cc1Cl`, the half-inhibitory concentration (IC50) was 450 nM.

As for `N#Cc1cccc(S(=O)(=O)N2CCN(c3nc4cc(C#N)ccc4nc3NC3CC3)CC2)c1`, the IC50 amounted to 2540 nM.

Take `Fc1cc2nc(NC3CC3)c(N3CCN(Cc4cc(Cl)ccc4Cl)CC3)nc2cc1F`: the IC50 came out at 800 nM.

In the case of `N#Cc1ccc2nc(NC3CC3)c(N3CCN(S(=O)(=O)c4ccc(Br)s4)CC3)nc2c1`, the IC50 was determined as 420 nM.

On to `N#Cc1ccc2nc(NC3CC3)c(N3CCN(S(=O)(=O)c4ccccc4F)CC3)nc2c1`, for which the IC50 amounted to 4590 nM.

Turning to `CC(C)Nc1nc2cc(C(=O)N(C)C)ncc2nc1N1CCC(Oc2ccc(Cl)cc2F)CC1`, the IC50 was found to be 6 nM.

In the case of `COc1ccc(CC2CCN(c3nc4cnncc4nc3NC(C)C)CC2)c(F)c1`, the IC50 was determined as 15 nM.

For `CC(=O)c1ccc(OC2CCN(c3nc4cnccc4nc3NC3CC3)CC2)cc1`, the half-inhibitory concentration (IC50) came to 1740 nM.

For the compound `N#Cc1ccc2nc(NC3CC3)c(N3CCN(S(=O)(=O)c4cc(C(F)(F)F)ccc4Cl)CC3)nc2c1`, the 50% inhibitory concentration (IC50) stood at 1360 nM.

On to `COc1ccccc1C(=O)C1CCN(c2nc3cnccc3nc2NC2CC2)CC1`, for which the IC50 was 1920 nM.

Turning to `CN(C)C(=O)c1cc2nc(NCC(F)F)c(N3CCC(Oc4ccc(F)cc4F)CC3)nc2cn1`, the IC50 is 65 nM.

On to `CC[C@@H](C)Nc1nc2cnncc2nc1N1CCC(Oc2ccc(OC)cc2F)CC1`, for which the IC50 was determined as 30 nM.

With `Fc1ccc(OC2CCN(c3nc4ccncc4nc3NC3CCC3)CC2)c(F)c1`, the IC50 is 14 nM.

Consider `N#Cc1cccc2nc(N3CCN(Cc4cc(Cl)ccc4Cl)CC3)c(NC3CC3)nc12`, for which the IC50 was 1490 nM.

`CSc1ccc(OC2CCN(c3nc4cnccc4nc3NC3CC3)CC2)cc1`: the IC50 was found to be 146 nM.
